Experimental findings from patent publication US20040096436A1, “Methods for inhibiting protein kinases in cancer cells” (priority 2002, published 2004) are described below.

In assay [1] the test system is activated PBL. Put plainly: α-tubulin polymerization assay in PBL activated with anti-CD3 and anti-CD28 antibodies. Format: cell-based, human. The settings on record: PBL activated 24 hrs with anti-CD3 and anti-CD28, paclitaxel for one hour. The protocol: (§1) All primary cells were cultured in RPMI 1640 medium with 20% fetal bovine serum (regular medium) at a density of 2-5×10^6 cell/ml. In some cases, the PBL were stimulated for 24 hours with 1 μg/ml anti-CD3 and anti-CD28 antibodies (Alexis, San Diego, Calif.) prior to immunoblot analysis.
(§2) α-tubulin Polymerization Assay.
After a brief but vigorous vortex, the lysates were incubated at room temperature for 5 minutes, and then centrifuged at 16,000×g for 5 minutes to separate the soluble from polymerized α-tubulin. The supernatant and pellet fractions were resolved on 10-20% pre-cast tris-glycine gels (Novex, San Diego, Calif.) and then subjected to immune blotting with a specific anti-α-tubulin antibody.
The cytosolic (S) monomeric and particulate-bound (P) polymerized forms of α-tubulin were separated by centrifugation from drug-treated cells and assayed by immunoblotting.

For assay [2], the system named is CLL cells. Description: α-tubulin polymerization assay in CLL cells. Format: cell-based, human. To be noted: paclitaxel. The protocol: The Institutional Review Board of the University of California, San Diego approved this study, and all patients gave informed written consent to participation. Subjects had CLL according to National Cancer Institute (NCI) criteria of any Rai stage. None of the patients were in active chemotherapeutic treatments. Flow cytometric analysis determined that all specimens contained more than 90% CD5+ CD19+ B cells.
Peripheral blood from CLL patients or normal donors was layered on top of Ficoll-Paque Plus (Pharmacia, NJ) and centrifuged at 1200×g for twenty minutes. The enriched peripheral blood mononuclear cells (PBL) were washed several times with Ca++, Mg++-free HBSS.
as §1, §2
For each data point, 2×10^6 of cells were incubated in 2ml of regular medium containing drugs for various periods of time. The cells were then washed twice at room temperature, and resuspended in 50 μl of α-tubulin extraction buffer (1 mM MgCl2, 2 m MEGTA, 0.5% NP-40, 20 mM Tris-HCl, pH=6.8) supplemented with 2 mM phenylmethysulfonyl fluoride, and a protease inhibitor cocktail (Sigma). […]

For `CC(=O)O[C@H]1C(=O)[C@@]2(C)[C@H]([C@H](OC(=O)c3ccccc3)[C@]3(O)C[C@H](OC(=O)[C@H](O)[C@@H](NC(=O)c4ccccc4)c4ccccc4)C(C)=C1C3(C)C)[C@]1(OC(C)=O)CO[C@@H]1C[C@@H]2O` [paclitaxel], the “α-tubulin in the particulate fraction after treatment” value in assay [1] was “shift of α-tubulin to the particulate-bound fraction”. Also, in assay [2], the “α-tubulin relocalization to the particulate fraction after treatment” value is “nearly complete relocalization of α-tubulin to the particulate fraction”.
